Patent US20090042964A1, “AMINO-5-[SUBSTITUTED-4-(DIFLUOROMETHOXY)PHENYL]-5-PHENYLIMIDAZOLONE COMPOUNDS AS BETA-SECRETASE INHIBITORS” (Wyeth, priority 2007, published 2009)

Tests used:
human BACE1 = human BACE1 (Homo sapiens, UniProt P56817); assay: Fluorescent kinetic assay, evaluation of BACE1 binding affinity of test compounds; type: biochemical; conditions: 10 nM human BACE1, 25 μM substrate WABC-6, pH 4.5, room temperature; read-out: BACE1 IC50
Procedure, shortened: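 Kinetic fluorescence assay: enzyme added last to inhibitor and substrate mix, reading started immediately; substrate at 100 μM working dilution (25 μL in 100 μL total). Buffer 66.7 mM Na-acetate pH 4.5 with 0.0667% CHAPS for inhibitor and enzyme dilutions; enzyme stock quantified at 280 nm.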

Sequence of human BACE1 (P56817 46-501): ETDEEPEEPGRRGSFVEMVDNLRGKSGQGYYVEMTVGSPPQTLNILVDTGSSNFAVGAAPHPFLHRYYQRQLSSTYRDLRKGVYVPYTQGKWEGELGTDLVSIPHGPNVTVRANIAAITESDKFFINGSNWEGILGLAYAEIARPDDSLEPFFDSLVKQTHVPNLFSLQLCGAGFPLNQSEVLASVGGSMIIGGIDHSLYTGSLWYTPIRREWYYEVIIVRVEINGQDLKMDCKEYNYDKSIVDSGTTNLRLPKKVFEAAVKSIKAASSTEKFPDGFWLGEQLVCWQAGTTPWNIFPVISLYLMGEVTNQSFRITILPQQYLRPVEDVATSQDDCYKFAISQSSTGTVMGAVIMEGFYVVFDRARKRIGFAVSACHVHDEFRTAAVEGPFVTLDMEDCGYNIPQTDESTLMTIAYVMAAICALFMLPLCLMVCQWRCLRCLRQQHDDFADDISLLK

Structure (SMILES)	IC50 (human BACE1)	melting point
CN1C(=O)C(c2cccc(Br)c2)(c2ccc(OC(F)F)c(C3CC3)c2)N=C1N (centres unmarked) [Example 164, 2-Amino-5-(3-bromo-phenyl)-5-(3-cyclopropyl-4-difluoromethoxy-phenyl)-3-methyl-3,5-dihydro-imidazol-4-one]	< 0.1 µM	85 to 87 °C
CN1C(=O)C(c2cccc(C#CCCCO)c2)(c2ccc(OC(F)F)c(C3CC3)c2)N=C1N (centres unmarked) [Example 188, 2-amino-4-(3-cyclopropyl-4-(difluoromethoxy)phenyl)-4-(3-(5-hydroxypent-1-ynyl)phenyl)-1-methyl-1H-imidazol-5(4H)-one]	< 0.1 µM	–
CN1C(=O)C(c2cccc(C#CCCCF)c2)(c2ccc(OC(F)F)c(C3CC3)c2)N=C1N (centres unmarked) [Example 191, 2-amino-4-(3-cyclopropyl-4-(difluoromethoxy)phenyl)-4-(3-(5-fluoropent-1-ynyl)phenyl)-1-methyl-1H-imidazol-5(4H)-one]	< 0.1 µM	–
CN1C(=O)C(c2ccc(OC(F)F)c(C3CC3)c2)(c2ccc(OC(F)F)c(C3CC3)c2)N=C1N [Example 194, 2-amino-4,4-bis(3-cyclopropyl-4-(difluoromethoxy)phenyl)-1-methyl-1H-imidazol-5(4H)-one]	0.11 to 1 µM	–
Cc1cc(C2(c3ccc(F)c(OC(C)C)c3)N=C(N)N(C)C2=O)ccc1OC(F)F (centres unmarked) [Example 195, 2-amino-5-[4-(difluoromethoxy)-3-methylphenyl]-5-(4-fluoro-3-isopropoxyphenyl)-3-methyl-3,5-dihydro-4H-imidazol-4-one]	0.11 to 1 µM	–
Cc1cc(C2(c3cccc(C#CCF)c3)N=C(N)N(C)C2=O)ccc1OC(F)F (centres unmarked) [Example 196, 2-amino-5-[4-(difluoromethoxy)-3-methylphenyl]-5-[3-(3-fluoroprop-1-yn-1-yl)phenyl]-3-methyl-3,5-dihydro-4H-imidazol-4-one]	< 0.1 µM	–
Cc1cc([C@@]2(c3cccc(C#CCF)c3)N=C(N)N(C)C2=O)ccc1OC(F)F [Example 200, (5R)-2-amino-5-[4-(difluoromethoxy)-3-methylphenyl]-5-[3-(3-fluoroprop-1-yn-1-yl)phenyl]-3-methyl-3,5-dihydro-4H-imidazol-4-one]	> 1 µM	–
Cc1cc([C@]2(c3cccc(C#CCF)c3)N=C(N)N(C)C2=O)ccc1OC(F)F [Example 201, (5S)-2-amino-5-[4-(difluoromethoxy)-3-methylphenyl]-5-[3-(3-fluoroprop-1-yn-1-yl)phenyl]-3-methyl-3,5-dihydro-4H-imidazol-4-one]	< 0.1 µM	–
Cc1cc(C2(c3cccc(C#CCCF)c3)N=C(N)N(C)C2=O)ccc1OC(F)F (centres unmarked) [Example 202, 2-amino-5-[4-(difluoromethoxy)-3-methylphenyl]-5-[3-(4-fluorobut-1-yn-1-yl)phenyl]-3-methyl-3,5-dihydro-4H-imidazol-4-one]	< 0.1 µM	–
Cc1cc(C2(c3ccc(F)c(C#CCCF)c3)N=C(N)N(C)C2=O)ccc1OC(F)F (centres unmarked) [Example 203, 2-amino-5-[4-(difluoromethoxy)-3-methylphenyl]-5-[4-fluoro-3-(4-fluorobut-1-yn-1-yl)phenyl]-3-methyl-3,5-dihydro-4H-imidazol-4-one]	< 0.1 µM	–
Cc1cc([C@@]2(c3cccc(C#CCCF)c3)N=C(N)N(C)C2=O)ccc1OC(F)F [Example 204, (5R)-2-amino-5-[4-(difluoromethoxy)-3-methylphenyl]-5-[3-(4-fluorobut-1-yn-1-yl)phenyl]-3-methyl-3,5-dihydro-4H-imidazol-4-one]	> 1 µM	–
Cc1cc([C@]2(c3ccc(F)c(C#CCCF)c3)N=C(N)N(C)C2=O)ccc1OC(F)F [Example 205, (5R)-2-amino-5-[4-(difluoromethoxy)-3-methylphenyl]-5-[4-fluoro-3-(4-fluorobut-1-yn-1-yl)phenyl]-3-methyl-3,5-dihydro-4H-imidazol-4-one]	< 0.1 µM	–
Cc1cc([C@]2(c3cccc(C#CCCF)c3)N=C(N)N(C)C2=O)ccc1OC(F)F [Example 206, (5S)-2-amino-5-[4-(difluoromethoxy)-3-methylphenyl]-5-[3-(4-fluorobut-1-yn-1-yl)phenyl]-3-methyl-3,5-dihydro-4H-imidazol-4-one]	< 0.1 µM	–
Cc1cc([C@@]2(c3ccc(F)c(C#CCCF)c3)N=C(N)N(C)C2=O)ccc1OC(F)F [Example 207, (5S)-2-amino-5-[4-(difluoromethoxy)-3-methylphenyl]-5-[4-fluoro-3-(4-fluorobut-1-yn-1-yl)phenyl]-3-methyl-3,5-dihydro-4H-imidazol-4-one]	0.11 to 1 µM	–
CN1C(=O)C(c2ccc(F)c(C#CCCF)c2)(c2ccc(OC(F)F)c(C3CC3)c2)N=C1N (centres unmarked) [Example 208, 2-amino-5-[3-cyclopropyl-4-(difluoromethoxy)phenyl]-5-[4-fluoro-3-(4-fluorobut-1-yn-1-yl)phenyl]-3-methyl-3,5-dihydro-4H-imidazol-4-one]	< 0.1 µM	–
CN1C(=O)C(c2cccc(C#CCF)c2)(c2ccc(OC(F)F)c(C3CC3)c2)N=C1N (centres unmarked) [Example 209, 2-amino-5-[3-cyclopropyl-4-(difluoromethoxy)phenyl]-5-[3-(3-fluoroprop-1-yn-1-yl)phenyl]-3-methyl-3,5-dihydro-4H-imidazol-4-one]	< 0.1 µM	–
CN1C(=O)C(c2ccc(F)c(C#CCF)c2)(c2ccc(OC(F)F)c(C3CC3)c2)N=C1N (centres unmarked) [Example 210, 2-amino-5-[3-cyclopropyl-4-(difluoromethoxy)phenyl]-5-[4-fluoro-3-(3-fluoroprop-1-yn-1-yl)phenyl]-3-methyl-3,5-dihydro-4H-imidazol-4-one]	< 0.1 µM	–
CN1C(=O)C(c2cccc(C#CCCF)c2)(c2ccc(OC(F)F)c(C3CC3)c2)N=C1N (centres unmarked) [Example 211, 2-amino-5-[3-cyclopropyl-4-(difluoromethoxy)phenyl]-5-[3-(4-fluorobut-1-yn-1-yl)phenyl]-3-methyl-3,5-dihydro-4H-imidazol-4-one]	< 0.1 µM	–
CN1C(=O)[C@@](c2cccc(C#CCF)c2)(c2ccc(OC(F)F)c(C3CC3)c2)N=C1N [Example 212, (5R)-2-amino-5-[3-cyclopropyl-4-(difluoromethoxy)phenyl]-5-[3-(3-fluoroprop-1-yn-1-yl)phenyl]-3-methyl-3,5-dihydro-4H-imidazol-4-one]	> 1 µM	–
CN1C(=O)[C@](c2cccc(C#CCF)c2)(c2ccc(OC(F)F)c(C3CC3)c2)N=C1N [Example 213, (5S)-2-amino-5-[3-cyclopropyl-4-(difluoromethoxy)phenyl]-5-[3-(3-fluoroprop-1-yn-1-yl)phenyl]-3-methyl-3,5-dihydro-4H-imidazol-4-one]	< 0.1 µM	–
CN1C(=O)[C@@](c2ccc(F)c(C#CCCF)c2)(c2ccc(OC(F)F)c(C3CC3)c2)N=C1N [Example 214, (5S)-2-amino-5-[3-cyclopropyl-4-(difluoromethoxy)phenyl]-5-[4-fluoro-3-(4-fluorobut-1-yn-1-yl)phenyl]-3-methyl-3,5-dihydro-4H-imidazol-4-one]	> 1 µM	–
CN1C(=O)[C@](c2ccc(F)c(C#CCCF)c2)(c2ccc(OC(F)F)c(C3CC3)c2)N=C1N [Example 215, (5R)-2-amino-5-[3-cyclopropyl-4-(difluoromethoxy)phenyl]-5-[4-fluoro-3-(4-fluorobut-1-yn-1-yl)phenyl]-3-methyl-3,5-dihydro-4H-imidazol-4-one]	< 0.1 µM	–
